The text below walks through data of patent US9095126B2, “Targeting TGF-β as a therapy for Alzheimer's disease” (Yale University, priority 2008, dated 2015).

The subject of one assay is peripheral macrophages. Description: Aβ phagocytosis assay, Aβ488 pulse-chase, confocal microscopy. The class given is cell-based, mouse. Conditions: primary macrophages with ALK5 inhibitor 1 h, pulsed 4 h with pre-aggregated Aβ488, chased 15 min (FIG. 9B-9C). Here is the method:
FIG. 9, comprising FIGS. 9A-9F, is a series of images depicting Activin-like kinase (ALK) inhibition increases the ratio of phospho-SMAD1/5/8 to phospho-SMAD2/3 and promotes macrophage Aβ phagocytosis. FIG. 9A depicts peripheral MΦ pre-treated with a dose range (0.1, 1.0, or 10.0 μM) of ALK5 inhibitors (SB-505124 or SB-431542) for 1 h and then cultured in the presence or absence of recombinant TGF-β1 (5 ng/mL) for 30 min as indicated. Upper panels show Western blots for phospho (p) or total forms of SMAD2/3 or SMAD1/5/8. Lower panel is a histogram showing the ratio of pSMAD1/5/8 to pSMAD2/3. […] FIG. 9C depicts quantification of confocal images (n=3 randomly selected 10× magnification fields per group, group means±s.d.), and Aβ488-labeled area is shown in the upper graph, and numbers of Aβ488 phagocytic cells/field are shown in the lower graph. FIGS. 9D-9F depict gender-dependent reductions in Aβ levels in Tg2576+ animals and anti-inflammatory responses in brains of crossed mice. Biochemical analyses of (FIG. 9D) detergent-soluble and (FIG. 9E) guanidine HCl-soluble Aβ1-42 and Aβ1-42/Aβ1-40 in male vs. female Tg2576 positive mice (irrespective of CD11c-DNR transgene status). FIG. 9F depicts Q-PCR results for Tnfa (left) or Il10 (right) expression (relative to Hprt1) shown for four groups of mice, and statistical comparisons vs. wild-type mice. […]

For assay [1], the system named is bone morphogenic protein-activated Smad1/5/8 signaling. Description: Western blot for phosphorylated Smad1/5/8 (alternate bone morphogenic protein-activated signaling) in peripheral macrophages. The settings on record: for ratio of phospho-Smad1/5/8 to phospho-Smad2/3: ALK5 inhibitor treatment alone, 0.1, 1.0 or 10.0 μM, peripheral macrophages (FIG. 9A). The class given is cell-based, mouse. Here is the method:
(§1) Cortical microglia were isolated from neonatal (1-2 day-old) CD11c-DNR or wild-type C57BL/6 mice according to previously published methods (Tan et al., 1999 Science 286: 2352-2355; Town et al., 2006 J. Immunol, 176: 3804-3812), Briefly, brains were isolated under sterile conditions and cerebral cortices were incubated in tripsin-EDTA (Invitrogen-Gibco) for 15 min at 37° C. Complete RPMI 1640 medium (supplemented with 10% FCS and 1 mM penicillin-streptomycin) was then added and brains were dissociated by trituration. Subsequently, cerebral cortex material was plated in 25 cm^2 flasks (Fisher Scientific), and the media was changed every 2-3 days. When the appearance of microglia was noted (typically 14 days after plating), culture media was exchanged with RPMI 1640 medium supplemented with 5% FCS, and the microglia were isolated by shaking in an incubator-shaker at 200 rpm for 2 h at 37° C. Peripheral MΦ were isolated from adult CD11c-DNR or wild-type C57BL/6 mice according to standard immunological methods by intraperitoneally (i.p.) injecting mice with 900 μL of 3% (w/v) sterile thioglycollate solution diluted in PBS. Four days later, mice were injected i.p. with 10 mL of ice-cold PBS for peritoneal lavage. Peripheral MΦ were then plated with complete medium (DMEM supplemented with 10% FCS and 1 mM penicillin streptomycin) and allowed to rest overnight. […] Microglia or peripheral MΦ from wild-type or CD11c-DNR mice were plated at 1×10^6 cells/well in 6-well tissue culture plates (BD Biosciences-Falcon) containing complete RPMI 1640 media or complete DMEM, respectively. These cells were then treated with a dose-range of recombinant TGF-β1 (R&D Systems; 1, 5, or 10 ng/mL) in the presence or absence of lipopolysachharide (LPS, 50 ng/mL) for 30 min. In a separate set of experiments, these cells were pre-treated for 1 h with ALK5 inhibitors SB-505124 or SB-431542 (Sigma-Aldrich; used at 0.1, 1.0, or 10.0 μM) and 5 ng/mL of recombinant TGF-β1 was added. For Aβ phagocytosis assay, MΦ were pulse-chased with Aβ as described elsewhere herein. Cells were rinsed in ice-cold PBS three times, and lysed ice-cold lysis buffer (containing 20 mM Tris-HCl pH 7.5, 150 mM NaCl, 1 mM Na2EDTA, 1 mM EGTA, 1% v/v Triton X-100, 2.5 mM sodium pyrophosphate, 1 mM glycerophosphate, 1 mM Na3VO4, 1 μg/ml leupeptin, and 1 mM PMSF). After lysis for 30 min on ice, cell lysates were centrifuged at 15,000×g for 30 min, and supernatants were aliquoted for Western blot analysis. Protein concentration was determined using the Bradford method, and aliquots corresponding to 50 μg of protein were run out on 12% Nu-PAGE™ polyacrylamide gels (Invitrogen) and proteins were transferred electrophoretically to Immobilon-P polyvinylidene difluoride membranes (Millipore). Membranes were blocked in blocking buffer (5% w/v nonfat dry milk in Tris-buffered saline containing 1% v/v Tween-20) for 3 h at ambient temperature and incubated overnight at 4° C. with primary polyclonal antibodies directed against total or phosphorylated SMAD2/3, SMAD1/5/8, PAK2, or ERK1/2 (Cell Signaling Technology). Membranes were then rinsed three times for 5 min each in dH2O, and incubated with anti-rabbit secondary antibody conjugated with horseradish peroxidase (diluted at 1/2000 in blocking buffer; GE Healthcare-Amersham Biosciences). After an additional three rinses for 5 min each in dH2O, the membranes were incubated for 5 min at ambient temperature with the enhanced chemiluminescence substrate (Thermo Fisher Scientific-Pierce Biotechnology), exposed to film, and developed.

Assay [2] relates to TGF-β-activated Smad2/3 signaling. Description: Western blot for phosphorylated Smad2/3 (canonical TGF-β-activated signaling) in primary macrophages/microglia. Conditions: for TGF-β1-induced Smad2/3 phosphorylation: peripheral macrophages pre-treated 1 h with 0.1, 1.0 or 10.0 μM ALK5 inhibitor, then TGF-β1 5 ng/mL for 30 min (FIG. 9A); for phosphorylated Smad2/3 after TGF-β1 challenge: TGF-β1 1, 5 or 10 ng/ml with or without LPS 50 ng/ml, 30 min (FIG. 7A). The class given is cell-based, mouse. Here is the method: as §1
Background: A western blot detects proteins with antibodies after separation by electrophoresis.

The subject of assay [3] is p21-activated kinase 2 (PAK2). Description: Western blot for phosphorylated PAK2 in peripheral macrophages. The class given is cell-based, mouse. The settings on record: wild-type peripheral macrophages; for PAK2 phosphorylation: 30 min, TGF-β1 5 ng/mL alone, BMP-2 50-200 ng/mL or BMP-4 12.5-50 ng/mL (FIG. 12B). Here is the method:
Cortical microglia were isolated from neonatal (1-2 day-old) CD11c-DNR or wild-type C57BL/6 mice according to previously published methods (Tan et al., 1999 Science 286: 2352-2355; Town et al., 2006 J. Immunol, 176: 3804-3812), Briefly, brains were isolated under sterile conditions and cerebral cortices were incubated in tripsin-EDTA (Invitrogen-Gibco) for 15 min at 37° C. Complete RPMI 1640 medium (supplemented with 10% FCS and 1 mM penicillin-streptomycin) was then added and brains were dissociated by trituration. Subsequently, cerebral cortex material was plated in 25 cm^2 flasks (Fisher Scientific), and the media was changed every 2-3 days. When the appearance of microglia was noted (typically 14 days after plating), culture media was exchanged with RPMI 1640 medium supplemented with 5% FCS, and the microglia were isolated by shaking in an incubator-shaker at 200 rpm for 2 h at 37° C. Peripheral MΦ were isolated from adult CD11c-DNR or wild-type C57BL/6 mice according to standard immunological methods by intraperitoneally (i.p.) injecting mice with 900 μL of 3% (w/v) sterile thioglycollate solution diluted in PBS. Four days later, mice were injected i.p. with 10 mL of ice-cold PBS for peritoneal lavage. Peripheral MΦ were then plated with complete medium (DMEM supplemented with 10% FCS and 1 mM penicillin streptomycin) and allowed to rest overnight.
Microglia or peripheral MΦ from wild-type or CD11c-DNR mice were plated at 1×10^6 cells/well in 6-well tissue culture plates (BD Biosciences-Falcon) containing complete RPMI 1640 media or complete DMEM, respectively. These cells were then treated with a dose-range of recombinant TGF-β1 (R&D Systems; 1, 5, or 10 ng/mL) in the presence or absence of lipopolysachharide (LPS, 50 ng/mL) for 30 min. […] Protein concentration was determined using the Bradford method, and aliquots corresponding to 50 μg of protein were run out on 12% Nu-PAGE™ polyacrylamide gels (Invitrogen) and proteins were transferred electrophoretically to Immobilon-P polyvinylidene difluoride membranes (Millipore). […]

A further assay has as its system microglia. Conditions: exogenous addition of TGF-β1 to microglia (Wyss-Coray et al., 2001); cited from earlier work.
Where [4] appears, read: peripherally isolated macrophages, exogenous TGF-β1 5 ng/mL, 30 min (FIG. 9A).
Setting [5] is: wild-type peripheral macrophages, 30 min, TGF-β1 5 ng/mL alone, BMP-2 50-200 ng/mL or BMP-4 12.5-50 ng/mL (FIG. 12B).

Consider `Cc1cccc(-c2[nH]c(C(C)(C)C)nc2-c2ccc3c(c2)OCO3)n1` [SB-505124, reference compound], for which the “macrophage Aβ phagocytosis (Aβ488-labeled area, Aβ488 phagocytic cells/field)” value in the assay on peripheral macrophages is “increased Aβ phagocytosis in a dose-dependent fashion”. In assay [1], the “ratio of phospho-Smad1/5/8 to phospho-Smad2/3” value was “increased”. Moreover, the “TGF-β1-induced Smad2/3 phosphorylation” value in assay [2] is “blocked by ALK5 inhibition in a dose-dependent manner”.

For the molecule `NC(=O)c1ccc(-c2nc(-c3ccc4c(c3)OCO4)c(-c3ccccn3)[nH]2)cc1` [SB-431542, reference compound], the “macrophage Aβ phagocytosis (Aβ488-labeled area, Aβ488 phagocytic cells/field)” value with peripheral macrophages was “increased Aβ phagocytosis in a dose-dependent fashion”. In assay [1], the “ratio of phospho-Smad1/5/8 to phospho-Smad2/3” value is “increased”. In assay [2], the “TGF-β1-induced Smad2/3 phosphorylation” value was “blocked by ALK5 inhibition in a dose-dependent manner”.

As to “TGF-β1: recombinant TGF-β1 (R&D Systems), cytokine”, the “BMP-induced PAK2 phosphorylation” value in assay [3] (TGF-β1 5 ng/mL added to the BMP treatment conditions) is on record as “inhibited”. The PAK2 phosphorylation result in assay [3] is “little impact”. The Smad1/5/8 phosphorylation result in assay [1] (CD11c-DNR macrophages, exogenous TGF-β1 and LPS together (FIG. 7B)) was “further augmented”; in assay [1] (setting [4]), “increased phosphorylation”; in assay [1] (setting [5]), “little impact”. Moreover, in the assay with microglia, the “Aβ uptake by microglia” value was “promotes increased Aβ uptake”. Further, the “phosphorylated Smad2/3 after TGF-β1 challenge” value in assay [2] (CD11c-DNR macrophages) is recorded as “nonresponsive”; in assay [2] (CD11c-DNR microglia), “responded to challenge”; in assay [2] (wild-type microglia and macrophages) it was “showed phosphorylated Smad2/3”. Moreover, the Smad2/3 phosphorylation entry in assay [2] (TGF-β1 5 ng/mL added to the BMP treatment conditions, wild-type peripheral macrophages) is “further promoted”; in assay [2] (setting [4]), “increased phosphorylation”; in assay [2] (setting [5]), “promoted Smad2/3 phosphorylation”.

B1: BMP-4: recombinant BMP-4, bone morphogenic protein (protein, UniProt P12644 293-408, looked up)
Bone morphogenetic protein 4: SPKHHSQRARKKNKNCRRHSLYVDFSDVGWNDWIVAPPGYQAFYCHGDCPFPLADHLNSTNHAIVQTLVNSVNSSIPKACCVPTELSAISMLYLDEYDKVVLKNYQEMVVEGCGCR
Consider B1, for which the PAK2 phosphorylation entry in assay [3] is listed as “promoted”. For the same molecule, the “ratio of pSmad1/5/8 to pSmad2/3” value in assay [1] (BMP monotreatment compared with TGF-β1 treatment alone, wild-type peripheral macrophages) was “increased”. The Smad1/5/8 phosphorylation entry in assay [1] (setting [5]) was “promoted”. In addition, in assay [2] (setting [5]), the Smad2/3 phosphorylation entry is “did not impact”.
